Assay results published in patent publication US9695192B2, “Fused heterocyclic compounds as ion channel modulators” (GILEAD SCIENCES, INC., priority 2011, dated 2017).

These molecules were tested against wild-type human cardiac sodium channel, hNav1.5 (Homo sapiens, UniProt Q14524) (assay: Late INa screening assay (QPatch whole cell patch clamp, tefluthrin-enhanced late sodium current)). Details: HEK293 hNav1.5, late INa activated with 10 μM Tefluthrin.
Chain of wild-type human cardiac sodium channel, hNav1.5 (Q14524 whole entry): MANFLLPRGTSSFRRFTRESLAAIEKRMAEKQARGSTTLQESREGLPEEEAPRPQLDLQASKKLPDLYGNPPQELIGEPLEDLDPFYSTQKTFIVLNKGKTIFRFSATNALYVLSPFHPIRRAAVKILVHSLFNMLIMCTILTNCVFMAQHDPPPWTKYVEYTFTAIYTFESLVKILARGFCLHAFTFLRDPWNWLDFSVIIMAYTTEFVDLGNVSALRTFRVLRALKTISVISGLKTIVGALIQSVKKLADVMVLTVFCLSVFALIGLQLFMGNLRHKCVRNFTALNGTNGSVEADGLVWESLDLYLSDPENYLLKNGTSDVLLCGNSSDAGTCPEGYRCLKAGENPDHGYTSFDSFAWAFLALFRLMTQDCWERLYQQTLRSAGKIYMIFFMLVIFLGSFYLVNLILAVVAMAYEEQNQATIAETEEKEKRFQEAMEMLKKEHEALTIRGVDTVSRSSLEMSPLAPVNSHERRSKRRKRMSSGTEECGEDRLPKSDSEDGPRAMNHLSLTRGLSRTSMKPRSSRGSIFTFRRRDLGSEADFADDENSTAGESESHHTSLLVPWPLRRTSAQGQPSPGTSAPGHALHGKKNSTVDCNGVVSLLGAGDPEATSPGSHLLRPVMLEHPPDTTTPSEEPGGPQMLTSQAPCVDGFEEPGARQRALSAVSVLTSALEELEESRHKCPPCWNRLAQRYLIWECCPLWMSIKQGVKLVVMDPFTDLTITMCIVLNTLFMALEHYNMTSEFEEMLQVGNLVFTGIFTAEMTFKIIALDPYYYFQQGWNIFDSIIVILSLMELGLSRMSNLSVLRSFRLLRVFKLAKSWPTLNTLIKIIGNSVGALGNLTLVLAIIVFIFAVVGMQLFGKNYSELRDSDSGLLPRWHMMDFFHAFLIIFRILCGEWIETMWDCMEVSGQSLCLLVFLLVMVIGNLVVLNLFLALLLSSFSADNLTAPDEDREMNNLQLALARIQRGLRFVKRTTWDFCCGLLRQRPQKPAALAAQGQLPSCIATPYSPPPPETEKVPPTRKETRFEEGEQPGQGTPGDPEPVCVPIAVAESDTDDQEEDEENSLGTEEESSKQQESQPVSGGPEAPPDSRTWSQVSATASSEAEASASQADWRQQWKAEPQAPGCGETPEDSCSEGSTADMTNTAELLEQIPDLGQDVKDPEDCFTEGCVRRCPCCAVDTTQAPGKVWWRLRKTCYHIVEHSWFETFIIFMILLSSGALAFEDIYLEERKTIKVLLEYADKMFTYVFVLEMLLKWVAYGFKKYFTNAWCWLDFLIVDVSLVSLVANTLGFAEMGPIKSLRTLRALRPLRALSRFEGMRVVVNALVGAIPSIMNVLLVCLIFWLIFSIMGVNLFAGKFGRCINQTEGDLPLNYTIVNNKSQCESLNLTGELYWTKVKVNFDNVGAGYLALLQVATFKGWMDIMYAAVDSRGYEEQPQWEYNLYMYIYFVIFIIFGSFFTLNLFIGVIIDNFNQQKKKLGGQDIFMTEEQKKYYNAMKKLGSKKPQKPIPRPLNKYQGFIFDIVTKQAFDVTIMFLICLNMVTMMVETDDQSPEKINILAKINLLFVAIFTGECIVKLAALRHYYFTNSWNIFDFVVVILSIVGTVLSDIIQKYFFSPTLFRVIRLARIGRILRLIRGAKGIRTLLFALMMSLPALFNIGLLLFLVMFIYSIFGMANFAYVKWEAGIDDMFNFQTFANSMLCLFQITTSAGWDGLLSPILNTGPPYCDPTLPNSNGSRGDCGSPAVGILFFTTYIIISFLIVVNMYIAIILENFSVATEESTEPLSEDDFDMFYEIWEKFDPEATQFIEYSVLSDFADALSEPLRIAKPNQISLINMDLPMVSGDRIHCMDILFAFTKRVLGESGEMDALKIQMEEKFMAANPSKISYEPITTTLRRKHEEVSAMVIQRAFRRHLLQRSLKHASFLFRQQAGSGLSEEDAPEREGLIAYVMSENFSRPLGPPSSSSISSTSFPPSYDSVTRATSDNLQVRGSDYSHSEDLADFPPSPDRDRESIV
Format: cell-based
Procedure: The late sodium current (Late INa) and peak sodium current (Peak INa) assays are performed on an automated electrophysiology platform, QPatch 16X (Sophion Bioscience, Copenhagen, Denmark), which uses the whole cell patch clamp technique to measure currents through the cell membrane of up to 16 cells at a time. The assay uses an HEK293 (human embryonic kidney) cell line heterologously expressing the wild-type human cardiac sodium channel, hNav1.5, purchased from Millipore (Billerica, Mass.). No beta subunits were coexpressed with the Na channel alpha subunit. Cells are maintained with standard tissue culture procedures and stable channel expression is maintained with 400 μg/mL Geneticin in the culture medium. Cells isolated for use on QPatch are incubated for 5 minutes in Detachin 1X (Genlantis, San Diego, USA) at 37° C. to ensure that 80-90% of the cells are single and not part of a cell cluster. Experiments are carried out at 23-25° C.
For both the Late INa and Peak INa assays, series resistance compensation is set to 100% and series resistance and whole-cell compensation are performed automatically. Currents are digitized at 25 kHz and low-pass filtered at 12 kHz and 10 kHz for the late and peak INa assays, respectively. Currents through open sodium channels are automatically recorded and stored in the Sophion Bioscience Oracle database (Sophion Bioscience, Copenhagen, Denmark). Analysis is performed using QPatch Assay and database software and data are compiled in Excel.
Compound stocks are routinely made by the Gilead Sample Bank in plastic vials to 10 mM in dimethyl sulfoxide (DMSO). In some cases, when compounds are not soluble in DMSO, they are made in 100% ethanol. Stocks are sonicated as necessary. The extracellular solution for screening Late INa is composed of: 140 mM NaCl, 4 mM KCl, 1.8 mM CaCl2, 0.75 mM MgCl2 and 5 mM HEPES with pH adjusted to 7.4 using NaOH. The intracellular solution used to perfuse the inside of the cells for both the Late INa and Peak INa assays contains: 120 mM CsF, 20 mM CsCl, 5 mM EGTA, 5 mM HEPES and pH adjusted to 7.4 with CsOH. Compounds are diluted in extracellular solution to 1 μM in glass vials and then transferred to glass well plates before robotic addition to the cells. A 0 mM Na extracellular solution (0 Na-ECF) is used at the end of each experiment for the Late INa and Peak INa assays to measure baseline current contains: 140 mM N-methyl-D-glucamine; 4 mM KCl; 1.8 mM CaCl2; 0.75 mM MgCl2; 5 mM HEPES and pH was adjusted to 7.4 with HCl.
For the hNav1.5 Late INa assay, sodium channels are activated every 10 seconds (0.1 Hz) by depolarizing the cell membrane to −20 mV for 250 milliseconds (ms) from a holding potential of −120 mV. In response to a −20 mV voltage step, typical hNav1.5 sodium currents activate rapidly to a peak negative current and then inactivate nearly completely within 3-4 ms.
Compounds were tested to determine their activity in blocking the late sodium current. Late INa was generated by adding 10 μM Tefluthrin (pyrethroid) to the extracellular solution while recording Na currents. To confirm the block of late INa observed using the automated screening method, a second late INa enhancer (ATX-II) and the manual patch clamp method were used. ATX-II and tefluthrin occupy distinct, non-overlapping binding sites and modify Na^+ channel function differently to increase late INa. Compounds tested have been found generally to inhibit the enhanced late INa caused by either late INa enhancer. For the purposes of the screening, late INa is defined as the mean current between 225 ms and 250 ms after stepping to −20 mV to activate Na channels. After establishing the whole cell recording configuration, late INa activator is added to each well 4 times over a 16-17 minute period so that the late component of the Na current reaches a stable value. Compounds were then added (typically at 1 μM), in the presence of the late INa activator, with 3 additions over the course of 7 or 8 minutes. […]
In the case of `FC(F)(F)c1ccc(-c2ccc3c(c2)C(NCc2cccc(C(F)(F)F)n2)=NCCO3)cc1` [II-25, 7-(4-(trifluoromethyl)phenyl)-N-((6-(trifluoromethyl)pyridin-2-yl)methyl)-2,3-dihydrobenzo[f][1,4]oxazepin-5-amine], the inhibition at 1 µM is reported as 20%. `CN(C)[C@@H]1CCN(C2=NCCOc3ccc(-c4ccc(C(F)(F)F)cc4)cc32)C1` [II-51, (R)—N,N-dimethyl-1-(7-(4-(trifluoromethyl)phenyl)-2,3-dihydrobenzo[f][1,4]oxazepin-5-yl)pyrrolidin-3-amine] showed an inhibition at 1 µM of 21%. `CN(Cc1ccccc1)C1=NCCOc2ccc(-c3ccc(C(F)(F)F)cc3)cc21` [II-5, N-benzyl-N-methyl-7-(4-(trifluoromethyl)phenyl)-2,3-dihydrobenzo[f][1,4]oxazepin-5-amine] was tested, and the inhibition at 1 µM was 28%. Molecule `FC(F)(F)c1ccc(-c2ccc3c(c2)-c2nncn2CCO3)cc1` [Compound I-3, 10-(4-(trifluoromethyl)phenyl)-5,6-dihydrobenzo[f][1,2,4]triazolo[4,3-d][1,4]oxazepine] has an inhibition at 1 µM of 13%. Work on `FC(F)(F)c1ccc(-c2ccc3c(c2)C(NC2CCNC2)=NCCO3)cc1` (stereo not drawn) [II-59, N-(pyrrolidin-3-yl)-7-(4-(trifluoromethyl)phenyl)-2,3-dihydrobenzo[f][1,4]oxazepin-5-amine] yielded an inhibition at 1 µM of 8%. `N[C@H]1CCN(C2=NCCOc3ccc(-c4ccc(C(F)(F)F)cc4)cc32)C1` [II-56, (S)-1-(7-(4-(trifluoromethyl)phenyl)-2,3-dihydrobenzo[f][1,4]oxazepin-5-yl)pyrrolidin-3-amine] showed an inhibition at 1 µM of 17%. Work on `OC[C@H]1CCN(C2=NCCOc3ccc(-c4ccc(C(F)(F)F)cc4)cc32)C1` [II-16, (S)-(1-(7-(4-(trifluoromethyl)phenyl)-2,3-dihydrobenzo[f][1,4]oxazepin-5-yl)pyrrolidin-3-yl)methanol] yielded an inhibition at 1 µM of 13%. With `CN(C(=O)OC(C)(C)C)[C@@H]1CCN(C2=NCCOc3ccc(-c4ccc(C(F)(F)F)cc4)cc32)C1` [II-38, (R)-tert-butyl methyl(1-(7-(4-(trifluoromethyl)phenyl)-2,3-dihydrobenzo[f][1,4]oxazepin-5-yl)pyrrolidin-3-yl)carbamate] the inhibition at 1 µM was 18%. `FC(F)(F)CNC1=NCCOc2ccc(-c3ccc(C(F)(F)F)cc3)cc21` [II-29, N-(2,2,2-trifluoroethyl)-7-(4-(trifluoromethyl)phenyl)-2,3-dihydrobenzo[f][1,4]oxazepin-5-amine] showed an inhibition at 1 µM of 7%. `CC(C)(C)OC(=O)N[C@@H]1CCN(C2=NCCOc3ccc(-c4ccc(C(F)(F)F)cc4)cc32)C1` [II-50, (R)-tert-butyl 1-(7-(4-(trifluoromethyl)phenyl)-2,3-dihydrobenzo[f][1,4]oxazepin-5-yl)pyrrolidin-3-ylcarbamate] gave an inhibition at 1 µM of 22%. With `FC(F)(F)c1ccc(-c2ccc3c(c2)-c2ncc(-c4ncccn4)n2CCO3)cc1` [Compound I-7, 3-(pyrimidin-2-yl)-10-(4-(trifluoromethyl)phenyl)-5,6-dihydrobenzo[f]imidazo[1,2-d][1,4]oxazepine] the inhibition at 1 µM was 17%. `FC(F)(F)c1ccc(-c2ccc3c(c2)C(N2CCCC2c2ccccn2)=NCCO3)cc1` (stereo not drawn) [II-58, 5-(2-(pyridin-2-yl)pyrrolidin-1-yl)-7-(4-(trifluoromethyl)phenyl)-2,3-dihydrobenzo[f][1,4]oxazepine] gave an inhibition at 1 µM of 18%. `Cc1nnc2n1CCOc1ccc(-c3ccc(C(F)(F)F)cc3)cc1-2` [Compound I-4, 3-methyl-10-(4-(trifluoromethyl)phenyl)-5,6-dihydrobenzo[f][1,2,4]triazolo[4,3-d][1,4]oxazepine] was tested, and the inhibition at 1 µM was 10%. Work on `FC(F)(F)c1ccc(-c2ccc3c(c2)C(N2CCCC2)=NCCO3)cc1` [II-3, 5-(pyrrolidin-1-yl)-7-(4-(trifluoromethyl)phenyl)-2,3-dihydrobenzo[f][1,4]oxazepine] yielded an inhibition at 1 µM of 25%. With `Cc1cn2c(n1)-c1cc(-c3ccc(C(F)(F)F)cc3)ccc1OCC2` [Compound I-19, 2-methyl-10-(4-(trifluoromethyl)phenyl)-5,6-dihydrobenzo[f]imidazo[1,2-d][1,4]oxazepine] the inhibition at 1 µM was 13%. `FC(F)(F)c1ccc(-c2ccc3c(c2)C(NCCOc2ccccc2Cl)=NCCO3)cc1` [II-24, N-(2-(2-chlorophenoxy)ethyl)-7-(4-(trifluoromethyl)phenyl)-2,3-dihydrobenzo[f][1,4]oxazepin-5-amine] was tested, and the inhibition at 1 µM was 26%. `FC(F)(F)Oc1ccc(-c2ccc3c(c2)-c2ncc(C4CC4)n2CCO3)cc1` [Compound I-18, 3-cyclopropyl-10-(4-(trifluoromethoxy)phenyl)-5,6-dihydrobenzo[f]imidazo[1,2-d][1,4]oxazepine] showed an inhibition at 1 µM of 20%. In the case of `O=C1CCCN1C1=NCCOc2ccc(-c3ccc(C(F)(F)F)cc3)cc21` [II-30, 1-(7-(4-(trifluoromethyl)phenyl)-2,3-dihydrobenzo[f][1,4]oxazepin-5-yl)pyrrolidin-2-one], the inhibition at 1 µM is reported as 10%. Molecule `CCN(CC)[C@@H]1CCN(C2=NCCOc3ccc(-c4ccc(C(F)(F)F)cc4)cc32)C1` [II-49, (R)—N,N-diethyl-1-(7-(4-(trifluoromethyl)phenyl)-2,3-dihydrobenzo[f][1,4]oxazepin-5-yl)pyrrolidin-3-amine] has an inhibition at 1 µM of 11%. For `CC(C)(C)OC(=O)N[C@H]1CCN(C2=NCCOc3ccc(-c4ccc(C(F)(F)F)cc4)cc32)C1` [II-13, (S)-tert-butyl 1-(7-(4-(trifluoromethyl)phenyl)-2,3-dihydrobenzo[f][1,4]oxazepin-5-yl)pyrrolidin-3-ylcarbamate], the inhibition at 1 µM was 15%. Work on `N#Cc1cnc2n1CCOc1ccc(-c3ccc(C(F)(F)F)cc3)cc1-2` [Compound I-16, 10-(4-(trifluoromethyl)phenyl)-5,6-dihydrobenzo[f]imidazo[1,2-d][1,4]oxazepine-3-carbonitrile] yielded an inhibition at 1 µM of 1%. `FC(F)(F)c1ccc(-c2ccc3c(c2)C(NC2CCN(Cc4ncccn4)C2)=NCCO3)cc1` (stereo not drawn) [II-34, N-(1-(pyrimidin-2-ylmethyl)pyrrolidin-3-yl)-7-(4-(trifluoromethyl)phenyl)-2,3-dihydrobenzo[f][1,4]oxazepin-5-amine] was tested, and the inhibition at 1 µM was 3%. `O=C(N[C@H]1CCN(C2=NCCOc3ccc(-c4ccc(C(F)(F)F)cc4)cc32)C1)c1ncccn1` [II-45, (S)—N-(1-(7-(4-(trifluoromethyl)phenyl)-2,3-dihydrobenzo[f][1,4]oxazepin-5-yl)pyrrolidin-3-yl)pyrimidine-2-carboxamide] showed an inhibition at 1 µM of 6%. With `CC(C)(C)OC(=O)NC1CCN(C2=NCCOc3ccc(-c4ccc(C(F)(F)F)cc4)cc32)C1` (stereo not drawn) [II-57, tert-butyl 1-(7-(4-(trifluoromethyl)phenyl)-2,3-dihydrobenzo[f][1,4]oxazepin-5-yl)pyrrolidin-3-ylcarbamate] the inhibition at 1 µM was 23%. `Cc1cnc2n1CCOc1ccc(-c3ccc(OC(F)(F)F)cc3)cc1-2` [Compound I-17, 3-methyl-10-(4-(trifluoromethoxy)phenyl)-5,6-dihydrobenzo[f]imidazo[1,2-d][1,4]oxazepine] gave an inhibition at 1 µM of 14%. `CCN(CC)[C@H]1CCN(C2=NCCOc3ccc(-c4ccc(C(F)(F)F)cc4)cc32)C1` [II-48, (S)—N,N-diethyl-1-(7-(4-(trifluoromethyl)phenyl)-2,3-dihydrobenzo[f][1,4]oxazepin-5-yl)pyrrolidin-3-amine] showed an inhibition at 1 µM of 24%. In the case of `FC(F)(F)c1ccc(-c2ccc3c(c2)C(N2CCC(N4CCCC4)C2)=NCCO3)cc1` (stereo not drawn) [II-36, 5-(1,3′-bipyrrolidin-1′-yl)-7-(4-(trifluoromethyl)phenyl)-2,3-dihydrobenzo[f][1,4]oxazepine], the inhibition at 1 µM is reported as 7%.
